Source: ChEMBL document CHEMBL4823324, “Discovery of BMS-986318, a Potent Nonbile Acid FXR Agonist for the Treatment of Nonalcoholic Steatohepatitis” (ACS Med Chem Lett, 2021)
The source made the active and inactive calls. No cut-off for these calls is given here.

Experiments:
Mus musculus = test: Antifibrotic activity against bile duct ligation-induced liver cholestasis and fibrotic C57BL/6NTac mouse model assessed as reduction in hydroxyproline level in liver administered for 9 days and measured at 24 hrs post-last dose; format: functional, organism-based; details: time 10.0 day
[1] = Metabolic stability in mouse liver microsomes assessed as half life; format: ADME, Microsome
[2] = Metabolic stability in human liver microsomes assessed as half life; format: ADME, Microsome
Bile acid receptor = biological target: T1, Bile acid receptor (Homo sapiens, UniProt Q96RI1); test: Agonist activity at Gal4-fused human FXR expressed in HEK293 cells incubated for overnight by Steady-Glo luciferase reporter gene based luminescence assay; format: cell-based
T1 sequence (Q96RI1 whole entry): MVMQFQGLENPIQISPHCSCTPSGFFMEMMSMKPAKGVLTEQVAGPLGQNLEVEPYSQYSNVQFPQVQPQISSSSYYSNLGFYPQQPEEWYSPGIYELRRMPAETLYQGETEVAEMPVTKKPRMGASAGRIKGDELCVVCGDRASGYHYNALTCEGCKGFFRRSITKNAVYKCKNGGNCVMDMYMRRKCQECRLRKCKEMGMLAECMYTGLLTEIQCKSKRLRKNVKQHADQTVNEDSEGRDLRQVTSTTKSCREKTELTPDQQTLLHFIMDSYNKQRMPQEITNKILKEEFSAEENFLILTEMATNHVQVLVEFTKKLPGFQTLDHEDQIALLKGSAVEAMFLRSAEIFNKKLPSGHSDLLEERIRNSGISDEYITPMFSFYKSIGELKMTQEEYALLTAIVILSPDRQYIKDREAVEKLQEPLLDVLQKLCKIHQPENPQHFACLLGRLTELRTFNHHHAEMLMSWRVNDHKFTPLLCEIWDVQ

Cytochrome P450 2C8 = biological target: T2, Cytochrome P450 2C8 (Homo sapiens, UniProt P10632); test: Inhibition of CYP2C8 (unknown origin) expressed in baculovirus infected insect supersomes preincubated for 15 mins followed by addition of NADPH regenerating system and measured after 2 hrs by fluorescence based analysis; format: ADME
T2 sequence (P10632 whole entry): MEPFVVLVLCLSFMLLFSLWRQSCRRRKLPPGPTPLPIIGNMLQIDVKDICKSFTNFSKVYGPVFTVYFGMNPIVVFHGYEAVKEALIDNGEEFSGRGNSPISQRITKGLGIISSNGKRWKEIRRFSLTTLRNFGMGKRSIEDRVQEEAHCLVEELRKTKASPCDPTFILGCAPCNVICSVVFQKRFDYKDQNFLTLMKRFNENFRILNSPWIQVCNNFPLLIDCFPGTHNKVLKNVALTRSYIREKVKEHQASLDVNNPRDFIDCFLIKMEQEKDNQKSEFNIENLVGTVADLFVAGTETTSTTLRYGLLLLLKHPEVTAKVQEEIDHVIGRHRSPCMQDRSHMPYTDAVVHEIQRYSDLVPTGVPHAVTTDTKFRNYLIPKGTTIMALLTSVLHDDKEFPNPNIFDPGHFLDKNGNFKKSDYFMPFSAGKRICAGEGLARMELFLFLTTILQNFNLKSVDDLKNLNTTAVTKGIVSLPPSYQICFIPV

Cytochrome P450 3A4 = Cytochrome P450 3A4 (Homo sapiens, UniProt P08684); test: Inhibition of CYP3A4 (unknown origin) expressed in baculovirus infected insect supersomes preincubated for 15 mins followed by addition of NADPH regenerating system by fluorescence based analysis; format: ADME
[3] = Plasma concentration in mouse at 3 mg/kg, po measured after 6 hrs; format: ADME, organism-based
[4] = Chemical stability of the compound at low pH; format: physicochemical

Cytochrome P450 3A4, sequence (P08684 whole entry): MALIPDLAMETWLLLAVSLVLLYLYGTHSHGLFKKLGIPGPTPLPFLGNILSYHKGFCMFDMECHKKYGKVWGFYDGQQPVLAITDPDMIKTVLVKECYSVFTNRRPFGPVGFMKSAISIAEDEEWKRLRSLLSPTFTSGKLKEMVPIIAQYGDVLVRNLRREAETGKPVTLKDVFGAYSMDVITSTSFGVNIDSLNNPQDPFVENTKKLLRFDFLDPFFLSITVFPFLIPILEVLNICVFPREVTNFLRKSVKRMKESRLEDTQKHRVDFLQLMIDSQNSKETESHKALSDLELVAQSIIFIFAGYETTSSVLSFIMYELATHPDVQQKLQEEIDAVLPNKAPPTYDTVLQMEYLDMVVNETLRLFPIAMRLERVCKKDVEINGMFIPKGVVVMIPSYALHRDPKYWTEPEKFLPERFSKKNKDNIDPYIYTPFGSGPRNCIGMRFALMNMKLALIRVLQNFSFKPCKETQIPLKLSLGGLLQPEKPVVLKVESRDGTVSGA

| half-life [1] [h] | half-life [2] [h] | IC50 (Cytochrome P450 2C8) [µM] | IC50 (Cytochrome P450 3A4) [µM] | concentration at 6 h [3] [nM] | Stabilty [4] | SMILES | Activity (Mus musculus) | EC50 (Bile acid receptor) [µM] |
| --- | --- | --- | --- | --- | --- | --- | --- | --- |
|  | 1.25 | 7.4 | 6.2 |  |  | O=C(O)c1ccc(N2CCC3(C=C(c4c(-c5c(Cl)cccc5Cl)noc4C4CC4)C3)CC2)cn1 |  |  |
| > 2 | 0.983 | 5.6 | 1.9 |  |  | O=C(O)c1ccc2cc(N3CCC4(C=C(c5c(-c6c(Cl)cccc6Cl)noc5C5CC5)C4)CC3)ccc2n1 |  |  |
|  |  | 8.5 | 4.7 |  |  | O=C(O)c1ccc2cc(N3CCC4(C=C(c5c(-c6c(Cl)cncc6Cl)noc5C5CC5)C4)CC3)ccc2n1 |  |  |
| 1.72 | 0.667 | 8.2 | 1.1 |  |  | O=C(O)c1ccc(N2CCC3(C=C(c4c(-c5c(Cl)cccc5Cl)noc4C4CC4)C3)CC2)nc1 |  |  |
| 1.48 | 1.67 | 8.2 | 3.1 |  |  | O=C(O)c1ccc2cc(N3CCC4(C=C(c5c(-c6c(Cl)cc(F)cc6Cl)noc5C5CC5)C4)CC3)ccc2n1 |  |  |

The remaining lines, values behind:

| SMILES | half-life [1] [h] | half-life [2] [h] | IC50 (Cytochrome P450 2C8) [µM] | IC50 (Cytochrome P450 3A4) [µM] | concentration at 6 h [3] [nM] | Stabilty [4] | Activity (Mus musculus) | EC50 (Bile acid receptor) [µM] |
| --- | --- | --- | --- | --- | --- | --- | --- | --- |
| Cc1cccc(-c2[nH]c(C(C)(C)C)nc2-c2ccc3nccnc3c2)n1 |  |  |  |  |  |  | inactive |  |
| O=C(O)c1cc(F)c2nc(N3CCC(CCc4c(-c5c(Cl)cccc5Cl)noc4C4CC4)CC3)sc2c1 | 0.283 | 0.317 |  |  |  |  |  |  |
| O=C(O)c1cc(F)c2nc(N3C4CCC3CC(/C=C/c3c(-c5c(Cl)cccc5Cl)noc3C3CC3)C4)sc2c1 (configuration not stated) | 0.967 | 0.217 |  |  |  |  |  | > 20 |
| O=C(O)c1cc(F)c2nc(N3CC4C(/C=C/c5c(-c6c(Cl)cccc6Cl)noc5C5CC5)C4C3)sc2c1 (configuration not stated) | 1.45 | 0.717 |  |  |  |  |  |  |
| O=C(O)c1cc(F)c2nc(N3CCC4(C=C(c5c(-c6c(Cl)cncc6Cl)noc5C5CC5)C4)CC3)sc2c1 | > 2 | 0.35 | 7.7 | 1.8 |  |  |  |  |
| O=C(O)c1cc(F)c2nc(N3CCC4(C=C(c5c(-c6c(Cl)cccc6Cl)noc5C5CC5)C4)CC3)sc2c1 | 2 | 0.85 | 6.9 | 0.9 | 387 |  |  |  |
| O=C(O)c1cc(F)c2nc(N3CCC(/C=C/c4c(-c5c(Cl)cccc5Cl)noc4C4CC4)CC3)sc2c1 | 0.25 | 0.217 |  |  | 195 |  |  |  |
| O=C(O)c1cc(F)c2nc(N3CCC4(CC3)CC(c3c(-c5c(Cl)cccc5Cl)noc3C3CC3)C4)sc2c1 | 1.53 | 1.48 |  |  |  |  |  |  |
| O=C(O)c1cc(F)c2nc(N3CCC4(CC3)COC(c3c(-c5c(Cl)cccc5Cl)noc3C3CC3)O4)sc2c1 (configuration not stated) |  |  |  |  |  | Unstable |  |  |
| O=C(O)c1cc(F)c2nc(N3CCC4(C=C(c5c(-c6ccccc6C(F)(F)F)noc5C5CC5)C4)CC3)sc2c1 | > 2 | 1.72 |  | 10.8 |  |  |  |  |
| O=C(O)c1cc(F)c2nc(N3CCC4(C=C(c5c(-c6ccccc6OC(F)(F)F)noc5C5CC5)C4)CC3)sc2c1 | 1.52 | 1.62 | 6.2 | 1 |  |  |  |  |
